In publication PMC8482806, “A Novel Blood-Brain Barrier-Permeable Chemotherapeutic Agent for the Treatment of Glioblastoma” (Cureus, 2021):

What was measured:
[1] = tested on: phosphorylation of H2AX in LN229 cells; assay: Phosphorylation of γ-H2AX assay (immunoblot), LN229; assay type: cell-based, human; details: LN229, 16 hours
GBM cell lines = assay: Cell viability assay (CellTiter-Glo), multiple GBM cell lines; assay type: cell-based; details: Homo sapiens; range over cell lines; read-out: EC50s, viability loss in multiple GBM cell lines
Method: (§1) In vitro activity of QBS10072S was assessed using a modified clonogenic cell viability assay in 96-well clear-bottom plates. For the LLC-PK1 inducible LAT1-expressing cell line, 1000 cells/well were plated and cells were treated with either butyrate alone (non-induced) or with both butyrate and doxycycline (induced) as described above. For GBM cell lines, 2000 cells/well were plated. On day 2 (GBM) or day 3 (LLC-PK1) after original plating, cells were washed twice with PBS and incubated with 50 μL of various concentrations of QBS10072S in PBS in at least quadruplicate. After 30 minutes at 37°C, 200 μL of growth medium was added to each well. Clonal populations were allowed to grow until the control wells (mock treatment) were near confluence (7 to 10 days). At this point, 170 μL media were removed and 60 μL CellTiter-Glo® (Promega, Madison, WI) were added to each well. Plates were placed on an orbital shaker for three minutes to lyse the cells and then incubated for an additional 10 minutes at RT to stabilize the luminescent signal. Luminescence was recorded using an EnSpire® Multimode Plate Reader (Perkin Elmer). Background (luminescence from wells incubated with 100 μM melphalan or lomustine) was subtracted and data were normalized to the control. EC50s were determined by non-linear regression using GraphPad Prism.

[2] = tested on: phosphorylation of H2AX in U251 cells; assay: Phosphorylation of γ-H2AX assay (immunoblot), U251; assay type: cell-based, human; details: U251, 16 hours
Method: (§2) U251 or normal human astrocyte cells were plated in six-well plates and incubated with various concentrations of QBS10072S for 16 hours. Proteins were extracted from cells using cell lysis buffer (Cell Signaling Technologies, Danvers, MA) supplemented with proteinase and a phosSTOP phosphatase inhibitor cocktail (Sigma-Aldrich, St. Louis, MO). Proteins were separated by SDS-PAGE and transferred onto polyvinylidene difluoride membranes, which were then probed with primary antibodies followed by horseradish peroxidase-conjugated secondary antibody, and visualized by ECL (Thermo-Fischer, S. San Francisco, CA). Antibodies specific for γH2AX (#2577), LAT1 (#5347), and beta-actin (#4970) were obtained from Cell Signaling Technologies.

AM38 cells = assay: Cell viability assay (CellTiter-Glo), AM38; assay type: cell-based; details: Homo sapiens, AM-38; Cell Line: AM38; read-out: LC50 (μM ± SD)
Method: as §1

[3] = Cytotoxicity in normal human astrocytes (CellTiter-Glo); assay type: cell-based; details: normal human astrocytes (NHA), read-out: LC50
[4] = tested on: U251 intracerebral human GBM xenograft; assay: U251 intracerebral human GBM xenograft in athymic mice (BLI, survival); assay type: in vivo, mouse
Method: Five-week-old female athymic mice (nu/nu, homozygous: Simonsen Laboratories, Gilroy, CA), housed under aseptic conditions, received intracranial tumor cell injection as previously described and as approved by the University of California San Francisco Institutional Animal Care and Use Committee, Protocol #: AN111064-03. Briefly, mice were anesthetized by intraperitoneal injection of ketamine (100 mg/kg) and xylazine (10 mg/kg) and injected with 3 μL of tumor cell suspension (300,000 cells total) into the right caudate-putamen. Coordinates: 3 mm to the right from bregma, on top of the coronal suture, and 3.5 mm depth. Injection rate: ~30 second/uL. For treatment studies, eight mice were used for each group for LN229 studies and nine mice per group for U251 studies. Treatments began when tumors entered the log-phase of growth as measured by luminescence, for the LN229 experiment on Day 21 and for U251 experiments on Day 14.
Dosing levels and frequency are described in the figure legends.
For bioluminescence imaging (BLI), mice were anesthetized as above, then administered 150 mg/kg of luciferin (D-luciferin potassium salt, Gold Biotechnology, St. Louis, MO) via intraperitoneal injection. Ten minutes after luciferin injection, mice were examined for tumor bioluminescence with an IVIS Lumina imaging station and Living Image software (Caliper Life Sciences, Alameda, CA), and regions of interest were recorded as photons per second per steradian per square cm.
Mice were anesthetized via inhalation of 2.5% isoflurane with 1 L of oxygen per minute for five minutes prior to being positioned on an irradiation platform located 16.3 cm from a cesium-137 source (JL Shepherd & Associates, San Fernando, CA). Eyes, respiratory tracts, and bodies were protected with lead shielding. Mice received whole-brain irradiation at a dose rate of 247 cGy/min until 1.5 Gy radiation had been administered. After irradiation, animals were monitored until recovery. Mice were irradiated once daily for five consecutive days. All mice received the first radiation dose when tumors were in a log-phase growth (Day 14) as determined by BLI.
Tumor-bearing mice were treated with temozolomide (TMZ) 4 mg/kg via oral gavage, starting on day 14 post U251 cell injection once daily for five days - concurrent therapy with RT. TMZ was obtained from the UCSF hospital pharmacy and formulated with the Ora-Plus suspending vehicle (Perrigo, Dublin, Ireland) with a working concentration of 1 mg/mL.

[5] = tested on: phosphorylation of H2AX in normal human astrocytes; assay: Phosphorylation of γ-H2AX assay (immunoblot), normal human astrocytes; assay type: cell-based; details: NHAs, basal LAT1 undetectable, 16 hours
Method: as §2

LN229 cells = assay: Cell viability assay (CellTiter-Glo), LN229; assay type: cell-based; details: Homo sapiens, LN-229; Cell Line: LN229; read-out: LC50 (μM ± SD)
Method: as §1

Cc1ccc(N(CCCl)CCCl)cc1C[C@H](N)CC(=O)O [QBS10072S, (+)-(3S)-amino-4-[5-[bis(2-chloroethyl)amino]-2-methyl-phenyl]butanoic acid]
phosphorylation of H2AX [1]: dose-dependent phosphorylation of H2AX
EC50 (GBM cell lines): 12 to 40 µM
phosphorylation of H2AX [2]: dose-dependent phosphorylation of H2AX
CC50 (AM38 cells): 14 ± 4 µM
CC50 at 30 min [3]: > 10 µM
body weight loss over the course of the study ([4]; 10 mg/kg IV once a week for six weeks): no significant body weight loss
median survival time ([4]; 10 mg/kg IV once a week for six weeks, vehicle 37): 70 days
median survival time ([4]; QBS10072S 10 mg/kg once a week for 4 weeks + RT 1.5 Gy daily for 5 days, vehicle 35): 64 days
median survival time ([4]; QBS10072S alone, 10 mg/kg once a week for 4 weeks, vehicle 35): 45 days
tumor growth inhibition (TGI) vs. vehicle ([4]; day 35, 10 mg/kg IV once a week for six weeks): 95%
%TGI ([4]; day 35, QBS10072S alone, 10 mg/kg once a week for 4 weeks): 86%
%TGI ([4]; day 35, combination of QBS10072S 10 mg/kg once a week for 4 weeks and RT 1.5 Gy once daily for 5 days): 96%
DDR pathway activation (phospho-H2AX) [5]: significantly lower DDR pathway activation
CC50 (LN229 cells): 16 ± 2 µM
